# Measured values as given in paper PMC11790914, “Chemogenomics for steroid hormone receptors (NR3)” (Communications Chemistry, 2025).
# Values joined by “and” are separate entries in the source; they are usually repeats but may differ in a detail not shown here. Equal values may be shown once.
# Columns and labels:
# HEK293T cells [1] = assay: Cytotoxicity: necrosis induction (red fluorescent dye for permeable plasma membranes); assay type: cell-based; settings: 10 µM, 24 h, necrotic cell count normalized to 0.1% DMSO, single replicates;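 also: compounds applied in DMEM high glucose with 0.1% FCS and 0.1% DMSO, necrotic HEK293T cells counted by red staining of cells whose plasma membranes had become permeable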
# ABL1 = biological target: T1, ABL1 (Homo sapiens, UniProt P00519); assay: Liability panel screening by DSF: ABL1; assay type: binding; settings: DSF, 20 µM, n=2; read-out: Mean ΔTM ABL1
# T1 construct: made in house
# Protocol: (§1) Reference ligands are listed in the methods section.
# (§2) In-house produced recombinantly expressed proteins[62] of the liability panel targets were diluted in a buffer containing 10 mM HEPES (pH 7.5) and 500 mM NaCl to a concentration of 2 µM. SYPRO Orange (Invitrogen, Carlsbad, California, USA; #S6650) as a fluorescence probe was added at a 1:1000 dilution to the proteins. […] Temperature-dependent unfolding profiles were measured on a QuantStudio™ 5 real-time PCR machine (Thermo Fisher Scientific, Waltham, Massachusetts, USA; #A28140). […] The temperature was increased 3 °C per minute to a maximum temperature of 85 °C. Experiments were run as technical duplicates. […] Data were analyzed with the internal Thermal Shift Software (version 1.4, Thermo Fisher Scientific) using the Boltzmann equitation to determine the inflection point of the transition curve. Differences in melting temperature are given as ∆Tm in K. […]
# (§3) scanning fluorimetry (DSF).
# (§4) a concentration of 20 µM.
# AURKA = biological target: T2, AURKA (Homo sapiens, UniProt O14965); assay: Liability panel screening by DSF: AURKA; assay type: binding; settings: DSF, 20 µM, n=2; read-out: Mean ΔTM AURKA
# T2 construct: made in house
# T2 sequence (O14965 1-403): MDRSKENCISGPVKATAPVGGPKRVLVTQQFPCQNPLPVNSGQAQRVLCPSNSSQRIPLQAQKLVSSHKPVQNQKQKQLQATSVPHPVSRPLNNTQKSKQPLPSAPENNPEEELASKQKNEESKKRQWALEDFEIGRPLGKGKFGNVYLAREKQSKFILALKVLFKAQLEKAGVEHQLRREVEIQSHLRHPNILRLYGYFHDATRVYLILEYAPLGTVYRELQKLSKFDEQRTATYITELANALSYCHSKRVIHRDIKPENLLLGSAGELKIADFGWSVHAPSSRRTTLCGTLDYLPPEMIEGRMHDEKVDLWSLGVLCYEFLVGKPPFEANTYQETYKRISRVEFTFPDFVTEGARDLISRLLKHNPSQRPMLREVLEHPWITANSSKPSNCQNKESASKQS
# Protocol: as §1, §2, §3, §4
# CDK2 = biological target: T3, CDK2 (Homo sapiens, UniProt P24941); assay: Liability panel screening by DSF: CDK2; assay type: binding; settings: DSF, 20 µM, n=2; read-out: Mean ΔTM CDK2
# T3 construct: made in house
# Protocol: as §1, §2, §3, §4
# FGFR3 = biological target: T4, FGFR3 (Homo sapiens, UniProt P22607); assay: Liability panel screening by DSF: FGFR3; assay type: binding; settings: DSF, 20 µM, n=2; read-out: Mean ΔTM FGFR3
# T4 construct: made in house
# Protocol: as §1, §2, §3, §4
# GSK3B = biological target: T5, GSK3B (Homo sapiens, UniProt P49841); assay: Liability panel screening by DSF: GSK3B; assay type: binding; settings: DSF, 20 µM, n=2; read-out: Mean ΔTM GSK3B
# T5 construct: made in house
# BRD4 = biological target: T6, BRD4 (Homo sapiens, UniProt O60885); assay: Liability panel screening by DSF: BRD4; assay type: binding; settings: DSF, 20 µM, n=2; read-out: Mean ΔTM BRD4
# T6 construct: This panel comprised ten highly ligandable kinases and bromodomains; made in house
# Protocol: as §1, §2, §3, §4
# BRPF1 = biological target: T7, BRPF1 (Homo sapiens, UniProt P55201); assay: Liability panel screening by DSF: BRPF1; assay type: binding; settings: DSF, 20 µM, n=2; read-out: Mean ΔTM BRPF1
# T7 construct: This panel comprised ten highly ligandable kinases and bromodomains; made in house
# T7 sequence (P55201 628-732 limits assumed): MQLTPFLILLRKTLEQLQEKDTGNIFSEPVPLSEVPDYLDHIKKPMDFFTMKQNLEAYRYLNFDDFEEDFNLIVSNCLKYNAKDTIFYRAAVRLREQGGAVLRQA
# Protocol: as §1, §2, §3, §4
# CSNK1D = biological target: T8, CSNK1D (Homo sapiens, UniProt P48730); assay: Liability panel screening by DSF: CSNK1D; assay type: binding; settings: DSF, 20 µM, n=2; read-out: Mean ΔTM CSNK1D
# T8 construct: made in house
# Protocol: as §1, §2, §3, §4
# MAPK1 = biological target: T9, MAPK1 (Homo sapiens, UniProt P28482); assay: Liability panel screening by DSF: MAPK1; assay type: binding; settings: DSF, 20 µM, n=2; read-out: Mean ΔTM MAPK1
# T9 construct: made in house
# Protocol: as §1, §2, §3, §4
# TRIM24 = biological target: T10, TRIM24 (Homo sapiens, UniProt O15164); assay: Liability panel screening by DSF: TRIM24; assay type: binding; settings: DSF, 20 µM, n=2; read-out: Mean ΔTM TRIM24
# T10 construct: This panel comprised ten highly ligandable kinases and bromodomains; made in house
# T10 sequence (O15164 899-1004 limits assumed): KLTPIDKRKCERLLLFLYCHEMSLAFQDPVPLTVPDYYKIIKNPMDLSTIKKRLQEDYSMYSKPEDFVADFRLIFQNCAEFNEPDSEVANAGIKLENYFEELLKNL
# Protocol: as §1, §2, §3, §4
# [2] = system: NF-κB activity in HEK293 NF-κB reporter cells; assay: NF-kB activity assay (GFP reporter, ionomycin/PMA); assay type: cell-based; settings: n=3
# Protocol: Fig. 6 Application of the NR3 CG set.
# After 24 h, cells were incubated with the test compounds solubilized with 0.1% DMSO in the same medium without puromycin. After 4 h incubation, ionomycin (100 ng/mL) and phorbol-12-myristat-13-acetate (PMA, 10 ng/mL) was added, and the cells were imaged for confluence and GFP expression every 90 min. over 24 h using a Tecan SPARK Cyto (Tecan). The number of GFP expressing cells was normalized to confluence in each sample. Each sample was repeated in three biologically independent experiments.
# [3] = system: ATF6 activity in Hela ATF6 reporter cells; assay: Endoplasmic reticulum stress assay (ATF6 Renilla luciferase reporter, tunicamycin); assay type: cell-based
# Protocol: After 24 h, cells were incubated with the test compounds solubilized with 0.1% DMSO in the same medium without puromycin. After 4 h incubation, tunicamycin (100 ng/mL) was added. After another 18 h incubation, cells were assayed for renilla luminescence using DualGlo reagent (Promega) on a Tecan SPARK Cyto (Tecan). Test samples were normalized to the 0.1% DMSO control. Each sample was repeated in five biologically independent experiments.
# HEK293T cells [4] = assay: Cytotoxicity: metabolic activity (WST-8 / CCK-8 assay); settings: 10 µM; HEK293T, 24 h; WST-8; normalized to 0.1% DMSO; single replicates
# HEK293T cells [5] = assay: Cytotoxicity: growth-rate (change in confluence over 24 h); settings: 10 µM, normalized to 0.1% DMSO control, single replicates (n=1...)
# HEK293T cells [6] = assay: Cytotoxicity: apoptosis induction (caspase-3/7 DEVD fluorogenic DNA dye); settings: 10 µM; HEK293T, 24 h; apoptotic cell count normalized to 0.1% DMSO; single replicates
# Protocol: Cells were incubated with the test compounds at the indicated concentrations solubilized with 0.1% DMSO for 24 h. Growth-rate was determined based on the change in confluence over 24 h normalized to the change in confluence of cells treated with the 0.1% DMSO control (n = 10). Metabolic activity was determined with a water-soluble tetrazolium-8 (WST-8) assay (n = 8) after 24 h treatment. Apoptotic cells were detected with a fluorogenic DNA dye coupled to the caspase-3/7 recognition sequence (DEVD) after 24 h treatment and the apoptotic cell count was normalized to 0.1% DMSO treated cells (n = 6).
# HEK293T cells (German Collection of Microorganisms and Cell Culture GmbH, DSMZ; #ACC305) were cultured in DMEM high glucose, supplemented with 10% fetal calf serum (FCS), sodium pyruvate (1 mM), penicillin (100 µ/mL) and streptomycin (100 µg/mL) at 37 °C and 5% (v/v) CO2, and seeded in pre-coated (10 µg/mL collagen G solution (Merck KgaA; #L7213) for 30 min at 37 °C) 96-well plates (2 × 10^5 cells per well). After 24 h, the cells were treated with the respective NR3 CG compound candidate at the recommended concentration, bexarotene (100 µM) or doxorubicin (30 µM) as positive controls in DMEM high glucose supplemented with 0.1% FCS, penicillin (100 µ/mL), streptomycin (100 µg/mL) and 0.1% DMSO, or 0.1% DMSO alone as an untreated control. Each sample was prepared in at least four biologically independent replicates. […] Thereafter, the medium was aspirated and the cells were incubated for 3 h with 90 µL DMEM high glucose supplemented with 0.2% FCS, penicillin (100 µ/mL) and streptomycin (100 µg/mL) and additionally containing 10 µL Cell Counting Kit 8 solution (CCK-8; MedChemExpress, Monmouth Junction, New York, USA; #HY-K0301), and absorbance was measured at 1 h, 2 h and 3 h of incubation at 450 nm on a Tecan Spark Cyto to assess metabolic activity of the cells. Before drug administration, after the first medium exchange, 24 h after drug administration, and after fluorescence imaging cell confluence was assessed using the Tecan Spark Cyto, to account for changes in cell confluence due to drug administration and cell handling. Compound effects on cell confluence, apoptosis, metabolic activity and necrosis were normalized to the vehicle control of each biological replicate individually.
# T5 sequence (P49841 whole entry, species assumed): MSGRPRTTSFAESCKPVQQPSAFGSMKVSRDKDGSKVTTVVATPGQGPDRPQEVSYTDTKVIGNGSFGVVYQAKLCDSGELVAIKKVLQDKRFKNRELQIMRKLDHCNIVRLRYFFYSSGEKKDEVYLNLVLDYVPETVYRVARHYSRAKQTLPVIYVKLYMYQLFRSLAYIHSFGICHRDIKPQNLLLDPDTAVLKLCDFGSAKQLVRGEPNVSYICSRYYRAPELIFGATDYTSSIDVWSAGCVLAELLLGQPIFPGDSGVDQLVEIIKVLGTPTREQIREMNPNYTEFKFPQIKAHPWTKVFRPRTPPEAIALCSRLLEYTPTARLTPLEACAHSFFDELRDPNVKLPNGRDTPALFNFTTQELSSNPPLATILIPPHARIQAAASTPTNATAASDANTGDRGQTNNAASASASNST
# T4 sequence (P22607 23-806, species assumed): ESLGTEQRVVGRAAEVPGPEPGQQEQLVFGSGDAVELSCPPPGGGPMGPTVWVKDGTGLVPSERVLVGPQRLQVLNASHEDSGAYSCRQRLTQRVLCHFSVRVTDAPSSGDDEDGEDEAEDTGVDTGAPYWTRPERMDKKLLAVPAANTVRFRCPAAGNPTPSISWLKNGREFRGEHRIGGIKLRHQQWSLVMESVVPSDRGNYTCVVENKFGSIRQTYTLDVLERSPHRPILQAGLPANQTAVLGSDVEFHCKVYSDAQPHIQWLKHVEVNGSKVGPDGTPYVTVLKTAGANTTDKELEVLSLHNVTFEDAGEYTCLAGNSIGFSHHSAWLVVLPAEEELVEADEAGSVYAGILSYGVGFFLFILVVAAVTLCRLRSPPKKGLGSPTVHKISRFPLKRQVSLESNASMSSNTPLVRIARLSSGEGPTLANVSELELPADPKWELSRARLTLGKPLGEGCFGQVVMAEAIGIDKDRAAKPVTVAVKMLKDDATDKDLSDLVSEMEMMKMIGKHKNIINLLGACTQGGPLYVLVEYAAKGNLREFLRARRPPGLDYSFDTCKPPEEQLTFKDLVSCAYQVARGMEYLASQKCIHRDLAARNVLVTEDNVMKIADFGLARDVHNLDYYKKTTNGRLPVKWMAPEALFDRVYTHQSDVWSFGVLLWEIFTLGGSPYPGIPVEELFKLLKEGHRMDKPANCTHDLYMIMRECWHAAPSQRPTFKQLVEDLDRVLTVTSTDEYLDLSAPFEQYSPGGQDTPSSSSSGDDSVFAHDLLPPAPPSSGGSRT
# T1 sequence (P00519 whole entry, species assumed): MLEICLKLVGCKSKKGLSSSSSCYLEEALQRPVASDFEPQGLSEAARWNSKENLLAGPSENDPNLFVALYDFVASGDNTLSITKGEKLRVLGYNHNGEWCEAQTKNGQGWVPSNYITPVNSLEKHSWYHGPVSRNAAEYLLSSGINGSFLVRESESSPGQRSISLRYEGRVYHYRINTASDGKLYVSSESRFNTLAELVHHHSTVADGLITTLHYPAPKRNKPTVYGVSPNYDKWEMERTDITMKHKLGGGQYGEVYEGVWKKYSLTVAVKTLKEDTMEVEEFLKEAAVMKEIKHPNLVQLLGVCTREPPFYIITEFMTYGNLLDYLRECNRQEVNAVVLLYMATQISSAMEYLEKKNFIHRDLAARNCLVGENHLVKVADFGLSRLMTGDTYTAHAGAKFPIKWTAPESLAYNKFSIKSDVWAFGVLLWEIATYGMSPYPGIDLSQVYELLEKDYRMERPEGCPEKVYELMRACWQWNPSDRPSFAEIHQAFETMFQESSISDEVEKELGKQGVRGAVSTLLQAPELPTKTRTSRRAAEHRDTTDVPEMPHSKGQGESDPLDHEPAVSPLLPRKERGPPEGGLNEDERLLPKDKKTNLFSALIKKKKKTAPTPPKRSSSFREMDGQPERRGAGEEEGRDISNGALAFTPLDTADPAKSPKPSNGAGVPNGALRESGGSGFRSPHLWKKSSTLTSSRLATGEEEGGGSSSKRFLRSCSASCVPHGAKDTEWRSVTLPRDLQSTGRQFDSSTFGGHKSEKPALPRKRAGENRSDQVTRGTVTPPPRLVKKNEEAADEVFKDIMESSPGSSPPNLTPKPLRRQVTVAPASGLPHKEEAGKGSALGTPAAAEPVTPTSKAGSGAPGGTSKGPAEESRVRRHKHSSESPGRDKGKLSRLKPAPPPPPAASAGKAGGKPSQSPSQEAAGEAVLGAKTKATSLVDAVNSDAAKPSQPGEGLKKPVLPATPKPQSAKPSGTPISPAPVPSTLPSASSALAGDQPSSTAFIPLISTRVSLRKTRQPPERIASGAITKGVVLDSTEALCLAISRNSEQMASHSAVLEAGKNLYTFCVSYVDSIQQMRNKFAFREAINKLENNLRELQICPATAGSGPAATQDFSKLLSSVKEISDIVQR
# T8 sequence (P48730 whole entry, species assumed): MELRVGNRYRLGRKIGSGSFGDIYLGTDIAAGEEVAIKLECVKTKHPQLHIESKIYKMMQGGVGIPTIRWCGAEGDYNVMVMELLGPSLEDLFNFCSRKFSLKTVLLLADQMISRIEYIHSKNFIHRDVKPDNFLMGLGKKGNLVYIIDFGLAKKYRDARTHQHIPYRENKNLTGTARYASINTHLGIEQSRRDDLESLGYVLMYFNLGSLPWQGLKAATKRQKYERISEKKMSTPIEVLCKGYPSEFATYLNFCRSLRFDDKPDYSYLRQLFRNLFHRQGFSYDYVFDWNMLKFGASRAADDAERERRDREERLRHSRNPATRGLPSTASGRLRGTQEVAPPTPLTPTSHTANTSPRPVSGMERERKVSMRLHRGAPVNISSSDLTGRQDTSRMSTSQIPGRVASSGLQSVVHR
# T9 sequence (P28482 whole entry, species assumed): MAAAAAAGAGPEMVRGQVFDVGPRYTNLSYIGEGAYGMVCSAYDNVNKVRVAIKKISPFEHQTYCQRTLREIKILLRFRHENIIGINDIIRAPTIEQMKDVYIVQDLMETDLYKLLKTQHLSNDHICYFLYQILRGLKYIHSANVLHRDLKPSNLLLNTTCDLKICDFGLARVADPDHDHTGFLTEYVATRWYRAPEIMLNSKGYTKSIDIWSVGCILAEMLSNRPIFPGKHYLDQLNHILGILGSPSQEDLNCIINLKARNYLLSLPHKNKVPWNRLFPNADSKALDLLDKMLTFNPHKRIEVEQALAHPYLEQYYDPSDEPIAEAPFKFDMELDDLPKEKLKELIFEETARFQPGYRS
compound,measurement,setting,value
CN(C)CCOc1ccc(/C(=C(/CCCO)c2ccccc2)c2ccc(O)cc2)cc1 [GSK5182],Necrosis induction [NI],HEK293T cells [1],0.56 and 0.11 and 0.30 and 0.25
same,ΔTm at 20 µM,ABL1,0.43 °C
same,ΔTm at 20 µM,AURKA,-0.17 °C
same,ΔTm at 20 µM,CDK2,0.68 °C
same,ΔTm at 20 µM,FGFR3,0.62 °C
same,ΔTm at 20 µM,GSK3B,-1.96 °C
same,ΔTm at 20 µM,BRD4,-2.92 °C
same,ΔTm at 20 µM,BRPF1,-1.74 °C
same,ΔTm at 20 µM,CSNK1D,-0.68 °C
same,ΔTm at 20 µM,MAPK1,0.14 °C
same,ΔTm at 20 µM,TRIM24,-0.25 °C
same,Mean NFκB response,"[2]; 10 µM, 1,5 h",4124.00 GFP+-cells/confluence ∙ 1000
same,Mean NFκB response,"[2]; 10 µM, 4,5 h",4518.85 GFP+-cells/confluence ∙ 1000
same,Mean NFκB response,"[2]; 10 µM, 7,5 h",8291.63 GFP+-cells/confluence ∙ 1000
same,Mean NFκB response,"[2]; 10 µM, 10,5 h",18033.90 GFP+-cells/confluence ∙ 1000
same,Mean NFκB response,"[2]; 10 µM, 13,5 h",26386.99 GFP+-cells/confluence ∙ 1000
same,Mean NFκB response,"[2]; 10 µM, 16,6 h",32458.21 GFP+-cells/confluence ∙ 1000
same,Mean NFκB response,"[2]; 10 µM, 19,5 h",36483.54 GFP+-cells/confluence ∙ 1000
same,Mean NFκB response,"[2]; 10 µM, 22,5 h",40081.60 GFP+-cells/confluence ∙ 1000
same,Mean NFκB response,"[2]; 10 µM, 3 h",4121.32 GFP+-cells/confluence ∙ 1000
same,Mean NFκB response,"[2]; 10 µM, 6 h",5330.81 GFP+-cells/confluence ∙ 1000
same,Mean NFκB response,"[2]; 10 µM, 9 h",13339.51 GFP+-cells/confluence ∙ 1000
same,Mean NFκB response,"[2]; 10 µM, 12 h",22208.27 GFP+-cells/confluence ∙ 1000
same,Mean NFκB response,"[2]; 10 µM, 15 h",29794.15 GFP+-cells/confluence ∙ 1000
same,Mean NFκB response,"[2]; 10 µM, 18 h",34711.23 GFP+-cells/confluence ∙ 1000
same,Mean NFκB response,"[2]; 10 µM, 21 h",38030.00 GFP+-cells/confluence ∙ 1000
same,Mean NFκB response,"[2]; 10 µM, 24 h",41021.29 GFP+-cells/confluence ∙ 1000
same,ATF6 activity (tunicamycin-induced endoplasmic reticulum stress),"[3]; Hela ATF6 reporter cells, tunicamycin 100 ng/mL, 18 h, compounds at recommended concentrations, n = 5",lacked this effect
same,activity at 10 µM,"[3]; Homo sapiens, HeLa, 10 µM, single replicates n=1 to n=5, read-out: ER stress [rel. ATF6 activity]",88%
same,Metabolic activity [MA],HEK293T cells [4],0.99 and 0.91 (2×) and 0.85 and 1.04 and 1.01 and 0.95 and 0.93
same,Growth rate [GR],HEK293T cells [5],0.52 and 3.08 and 0.59 and 0.82 and 0.68 and 0.29 and 0.42 and 1.20 and 1.31 and 8.43
same,Apoptosis induction [AI],HEK293T cells [6],0.95 and 1.15 and 0.71 and 1.22 (2×) and 1.40
